Source: article PMC3602187, “From Design to Screening: A New Antimicrobial Peptide Discovery Pipeline” (PLoS ONE, 2013)

Test system: Listeria innocua 33090
Assay: colony overlay assay of peptide-secreting E. coli clones (library screening and re-test)
Type: cell-based
Set-up: key: higher activity group (H); equal activity group (E); lower activity group (L)
Settings: library screening; selected colonies pooled by zone size; peptides identified by 454 sequencing, full-length sequences with minimum 20 reads
Protocol: For the in vivo production of AMPs, we have employed an E. coli expression system that relies on periplasmic-expression of recombinant peptides in a host cell that lacks the lpo membrane protein, thus releasing the peptides present in the periplasmic space outside the cells. When the producer cells are grown into colonies on a solid substrate, it leads to accumulation of the recombinant peptides around the colony and allows for easy library screening. The screening assay used in this study was a modified version of the standard agar diffusion method as previously described. Library-transformed E. coli colonies are overlaid with a tester strain and incubated overnight to allow for peptide expression and tester strain growth. Next day, the plates are inspected for the formation of clear growth inhibition zones around E. coli colonies, which is an indication of active AMP production by the host colony.
For the construction of Pln-423 mutant library in E. coli, the expression system that consists of a periplasmic-leaky E. coli strain JE5505 and the expression plasmid pFLAG-CTS was employed for direct screening of peptide activities. It should be noted here that this plasmid contains ompA secretion signal sequence and cleavage of this sequence results in a serine residue at the N-terminal of all mature peptides. A total of 1.0×10^5 colonies, approximately 8-fold coverage of the library, were screened against Listeria innocua 33090 in five separate screening experiments. L. innocua was previously deemed as a suitable indicator for pathogenic L. monocytogenes displaying similar bacteriocin sensitivity, therefore it was used as a surrogate strain throughout this study. The selection process involved two criteria; 1) the size of the each inhibition zone was compared to that of wild-type Pln-423 as a correlation to anti-listerial activity level, 2) when several colonies formed inhibition zones that are very similar in size and character, only a few from each group were selected. The colonies were pooled into three groups based on their activities, giving 43 clones in a higher activity group (H), 81 clones in an equal activity group (E), and 241 clones in a lower activity group (L). Their plasmids were extracted from each activity group and analyzed by both Sanger and 454 high-throughput sequencing to identify peptide sequences.
These clones were also re-tested by colony overlay assay to compare their activities to wild-type Pln-423 based on the size of the inhibition zone around each clone (Figure 2-A). Based on this assay, all ten plantaricin mutants formed larger inhibition zones (10.3±0.5 to 11.4±0.3 mm zone diameter) compared to wild-type Pln-423 (6.2±0.2 mm) against L. innocua 33090. Out of those ten, three clones have a single mutation and […] clones have two mutations and the remaining single clone has three mutations. […] Positions like Ser23, Ser27, His28, and Lys36 were commonly mutated with similar amino acids indicating their potential role on higher peptide activity.
The screening method used in this study was a modified version of the standard colony overlay method as previously described. All the chemicals and growth media supplements were obtained from either Sigma-Aldrich or Fisher Scientific unless otherwise stated. Transformed E. coli JE5505 cells were diluted to 3000–5000 cfu (determined empirically prior to screening by plating serial dilutions of E. coli suspensions of a known absorbance and counting the colonies after incubation) in 25 ml LB soft agar (0.8%, 45°C) per screening plate and poured into 150 mm petri dishes. Once the media was solidified, they were overlaid with 10 ml LB soft agar (45°C) and incubated at 37°C for 24 h for host-colony formation. Next day, these plates were re-overlaid with 10 ml TSB soft agar containing 1 mM IPTG and the indicator strain Listeria innocua ATCC 33090 (diluted to OD600 = 0.03). […]

Row | Substance | activity group by size of inhibition zone compared to wild-type Pln-423
1 | KYYGNGVTCGKHSCSVNWGQAFECSVSHLANFGHGKC* [Pep-1_32] | L and H
2 | KYYGNGVTCGKHSCSVNWGQAFSCSVSHLANMGHGKC* [Pep-1_88] | H
3 | KYYGNGVTCGKHSCSVNWGQAFSCIVENLANFGHGKC* [GROUP L-UM-26] | L
4 | KYYGNGVTCGKHSCSVNWGQAFSCSVTILANFGHGKC* [Pep-2_6136] | L
5 | KYYGNGVTCGKHSCSVNWGQAFSCTVSNLANFGHGKC* [Pep-2_6771] | L and E and H
6 | KYYGNGVTCGKHSCSVNWGQAFSCSVSHLAAFGHGSC* [Pep-2_11993] | H
7 | KYYGNGVTCGKHSCSVNWGQAFSCSVIHLANFGHGSC* [Pep-2_11968] | H
8 | KYYGNGVTCGKHSCSVNAGQAFSCAVSHLANFGHGKC* [Pep-2_497] | E
9 | KYYGNGVTCGKHSCSVNWGQAFSCNVSHLANFGHGKC* [Pep-1_45] | L
10 | KYYGNGVTCGKHSCSVNWGTAFSCSVSYLANFGHGKC* [GROUP L-UM-14] | L
11 | KYYGNGVTCGKHSCSVNWAQAFSCSVSHLANFGHGHC* [Pep-2_1213] | L and E
12 | KYYGNGVTCGKHSCSVNWGQAFSCAVSHLANFGHHKC* [Pep-2_5095] | L
13 | KYYGNGVTCGKHSCSVNWGQAFSCSVAELANFGHGKC* [Pep-2_6350] | H
14 | KYYGNGVTCGKHSCSVNWGQAFSCSVSHLANGGHGKC* [Pep-1_89] | L
15 | KYYGNGVTCGKHSCSVNWGQALSCSVTHLANFGHGKC* [GROUP L-UM-8] | L
16 | KYYGNGVTCGKHSCSVNWGQAFDCSVSHLANFGHGKC* [GROUP H-UM-1] | H
17 | KYYGNGVTCGKHSCSVNWGVAFSCSVSHLANFGHGYC* [Pep-2_1755] | L
18 | KYYGNGVTCGKHSCSVNWGQSFSCSVSHLANFGHGKC* [GROUP E-UM-5] | E
19 | KYYGNGVTCGKHSCSVNWGQAFSCLVSNLANFGHGKC* [Pep-2_6772] | L
20 | KYYGNGVTCGKHSCSVNWGQAFWCSVSKLANFGHGKC* [Pep-2_3865] | L
21 | KYYGNGVTCGKHSCSVNWGQGFSCSVSHLANFGHGKC* [Pep-1_23] | L

Row | Substance | activity group by size of inhibition zone compared to wild-type Pln-423
22 | KYYGNGVTCGKHSCSVNWGPAFSCSVSRLANFGHGKC* [Pep-2_6528] | L
23 | KYYGNGVTCGKHSCSVNWGQAFSCSVSHLANFGHDKC* [GROUP E-UM-9] | E
24 | KYYGNGVTCGKHSCSVNWGQACSCSVSHLANFGHGKC* [Pep-1_30] | L
25 | KYYGNGVTCGKHSCSVNWGDAFSCSVAHLANFGHGKC* [Pep-2_1487] | L
26 | KYYGNGVTCGKHSCSVNWGQALSCAVSHLANFGHGKC* [Pep-2_5026] | L
27 | KYYGNGVTCGKHSCSVNWGGALSCSVSHLANFGHGKC* [Pep-2_1780] | L
28 | KYYGNGVTCGKHSCSVNWGQAFSCSVSHLANFGSGKC* [Pep-1_99] | E
29 | KYYGNGVTCGKHSCSVNWGQAFWCSVSHLANFGHGKC* [Pep-1_36] | L
30 | KYYGNGVTCGKHSCSVNWGQAFSCTVEHLANFGHGKC* [Pep-2_6015] | E and H
31 | KYYGNGVTCGKHSCSVNWGQAFSCSVTHLANFGHAKC* [Pep-2_6179] | E
32 | KYYGNGVTCGKHSCSVNWGQAGSCSVSRLANFGHGKC* [Pep-2_6539] | H
33 | KYYGNGVTCGKHSCSVNWGQAFSCAVSRLANFGHGKC* [Pep-2_5053] | L
34 | KYYGNGVTCGKHSCSVNWGQAFSCVVSHIANFGHGKC* [Pep-2_4954] | L
35 | KYYGNGVTCGKHSCSVNWGQAFDCSVSHLANFGHGKC* [GROUP E-UM-1] | E
36 | KYYGNGVTCGKHSCSVNWGQAFSCSVMHLANFGHGKC* [GROUP L-UM-16] | L
37 | KYYGNGVTCGKHSCSVNWGQAFACSVSHLANFGHGKC* [Pep-1_35] | E
38 | KYYGNGVTCGKHSCSVNWGEAFSCSVSHLANYGHGKC* [GROUP E-UM-2] | E
39 | KYYGNGVTCGNYSCSVNWGQAFSCSVVHLAEFGHGKC* [GROUP L-UM-10] | L
40 | KNYGNGVTCGKHSCSVNWGQAFSCSVEHLANFGHAKC* [GROUP E-UM-10] | E
41 | KYYGNGVTCGKHSCSVNWGQAFSCSVTHLANFGLGKC* [Pep-2_6172] | E
42 | KYYGNGVTCGKHSCSVNWGQAFSCCVSHLANFGHGKC* [GROUP L-UM-1] | L

Row | Substance | activity group by size of inhibition zone compared to wild-type Pln-423
43 | KYYGNGVTCGKHSCSVNWGQAFSCSVFHLANFGHGLC* [Pep-2_12076] | L
44 | KYYGNGVTCGKHSCSVNWGQAFECSVDHLANFGHGKC* [Pep-2_3428] | E
45 | KYYGNGVTCGKHSCSVNWGQAFSCSVSHLANFSHGKC* [GROUP L-UM-18] | L
46 | KYYGNGVTCGKHSCSVNWGQAFECSVSHLANFGMGKC* [Pep-2_10754] | E
47 | KYYGNGVTCGKHSCSVNWGQAFSCSVVHLVNFGHGKC* [Pep-2_6256] | L
48 | KYYGNGVTCGKHSCSVNWGQAFSCAVSHLANFGVGKC* [Pep-2_5092] | L
49 | KYYGNGVTCGKHSCSVNWGQAFMCSVEHLANFGHGKC* [Pep-2_6004] | L
50 | KYYGNGVTCGKHSCSVNWGQVFSCSVSHLANFGHGKC* [Pep-1_22] | L
51 | KYYGNGVTCGKHSCSVNWGQAFSCSVSHLANFGMGYC* [Pep-2_10827] | H
52 | KYYGNGVTCGKHSCSVNYGQAFSCSVWHLANFGHGKC* [Pep-2_282] | E
53 | KYYGNGVTCGKHSCSVNWGQAFSCSVTHLASFGHGKC* [Pep-2_6153] | L
54 | KYYGNGVTCGKHSCSVNWGQAFSCSVSKMANFGHGKC* [Pep-2_7543] | L
55 | KYYGNGVTCGKHSCSVNWAQALSCSVSHLANFGHGKC* [Pep-2_1132] | L
56 | KYYGNGVTCGKHSCSVNWGQAFSCWVSHLANFGHGKC* [GROUP L-UM-15] | L
57 | KYYGNGVTCGKHSCSVNWGAAFSCAVSHLANFGHGKC* [Pep-2_5015] | L
58 | KYYGNGVTCGKHSCSVNWGQAFSCYASHLANFGHGKC* [Pep-2_5691] | L
59 | KYYGNGVTCGKHSCSVNWGQAMSCSVSRLANFGHGKC* [Pep-2_6538] | E
60 | KYYGNGVTCGKHSCSVNWGQAFSCSVSHLANFGHGCC* [GROUP L-UM-31] | L
61 | KYYGNGVTCGKHSCSVNWGQAFYCSVSHLANFGHGKC* [GROUP L-UM-29] | L
